The text below walks through data of patent publication US10570184B2, “GLP-1/glucagon receptor co-agonists for medical use” (Novo Nordisk A/S, priority 2014, dated 2020).

The target in the assay is T1, human GLP-1 receptor (Homo sapiens, UniProt P43220).
T1 construct: expressed in transfected cells; host or cells: membranes of BHK cells (parent BHKTS13), clone FCW467-12A
In words: Assay (II)(a) GLP-1 receptor binding, 125I-GLP-1 displacement SPA on BHK membranes. The note with it: without presence of serum albumin; read-out: GLP-1R IC50 (nM) [Assay (II)(a)]. On the procedure:
The GLP-1 receptor (GLP-1R) binding is a measure of affinity of a compound for the human GLP-1 receptor. The receptor binding of each compound to the human GLP-1 receptor was measured in a displacement binding assay. In this type of assay a labelled ligand (in this case 125I-GLP-1) is bound to the receptor. Each derivative was added in a series of concentrations to isolated membranes containing the human GLP-1 receptor and displacement of the labelled ligand was monitored. The receptor binding was reported as the concentration at which half of the labelled ligand was displaced from the receptor, the IC50 value. In order to test the binding of the derivatives to albumin, the assay may be performed in a very low concentration of serum albumin (max. 0.001% final assay concentration) as well as in the presence of a (considerably) higher concentration of serum albumin (2.0% final assay concentration). An increase of the IC50 value, in the presence of serum albumin indicates an affinity to serum albumin and represents a method to predict a protracted pharmacokinetic profile of the test substance in animal models. The following chemicals were used in the assay: DMEM w/o phenol red (Gibco 11880-028), Pen/strep (Invitrogen 15140-122), G418 (Invitrogen 10131-027), 1 M Hepes (Gibco 15630), EDTA (Invitrogen 15575-038), PBS (Invitrogen 14190-094), fetal calf serum (Invitrogen 16140-071), EGTA, MgCl2 (Merck 1.05832.1000), Tween 20 (Amresco 0850C335), SPA particles (wheat germ agglutinin (WGA) SPA beads, Perkin Elmer RPNQ0001), [125I]-GLP-1]-(7-36)NH2 (produced in-house), OptiPlate™-96 (Perkin Elmer). Buffer 1 consisted of 20 mM Na-HEPES plus 10 mM EDTA and pH was adjusted to 7.4. Buffer 2 consisted of 20 mM Na-HEPES plus 0.1 mM EDTA and pH was adjusted to 7.4. Assay buffer consisted of 50 mM HEPES supplemented with 5 mM EGTA, 5 mM MgCl2, 0.005% Tween 20 and pH was adjusted to 7.4. The cells used in this assay (clone FCW467-12A) were BHK cells with BHKTS13 as a parent cell line. The cells express the human GLP-1 receptor. The cells were grown at 5% CO2 in DMEM, 10% fetal calf serum, 1% Pen/Strep (Penicillin/Streptomycin) and 1.0 mg/ml of the selection marker G418. To make a membrane preparation the cells were grown to approximately 80% confluence. The cells were washed twice in phosphate-buffered saline and harvested. The cells were pelleted using a brief centrifugation and the cell pellet was kept on ice. The cell pellet was homogenised with ULTRA-THURRAX dispersing instrument for 20-30 seconds in a suitable amount of buffer 1 (e.g., 10 ml). The homogenate was centrifuged for 15 minutes. The pellet was re-suspended (homogenised) in 10 ml buffer 2 and centrifuged. This step was repeated once more. The resulting pellet was re-suspended in buffer 2 and the protein concentration was determined. The membranes were aliquoted and stored at minus 80° C. • 1. For the receptor binding assay, 50 μl of the assay buffer was added to each well of an assay plate. • 2. Test compounds were serially diluted to give the following concentrations: 8×10EE-7 M, 8×10EE-8 M, 8×10EE-9 M, 8×10EE-10 M, 8×10EE-11 M, 8×10EE-12 M and 8×10EE-13 M. Twenty-five μl were added to appropriate wells in the assay plate. • 3. Cell membrane aliquots were thawed and diluted to their working concentration. Fifty μl were added to each well in the assay plate. • 4. WGA SPA beads were suspended in assay buffer at 20 mg/ml. The suspension was diluted to 10 mg/ml in assay buffer just prior to addition to the assay plate. Fifty μl were added to each well in the assay plate. • 5. The incubation was started by adding 25 μl of […] solution of [125I]-GLP-1]-(7-36)NH2 to each well of the assay plate. A 25 μl aliquot was reserved for measuring total counts/well. • 6. The assay plate was incubated for 2 h at 30° C. • 7. The assay plate was centrifuged for 10 min. • 8. The assay plate was read in a Perkin Elmer TopCount NXT instrument. […]

Starred links: 1 amine or outer side, 2 acyl side, 3 side chain; linkers in the order of their positions; H or OH if unused. Non-standard residues stand in square brackets, D forms with d. Residues, ends and D or L forms follow the SMILES beside them. Groups on a side chain read outwards from the residue. *: point of attachment. C18 diacid = O=C(O)CCCCCCCCCCCCCCCCC(=O)*; γGlu = O=C(O)[C@H](CCC(=O)[*:2])N[*:1]; AEEA = NCCOCCOCC(=O)O; Aib = CC(C)(N)C(=O)O

T1 sequence (P43220 24-463): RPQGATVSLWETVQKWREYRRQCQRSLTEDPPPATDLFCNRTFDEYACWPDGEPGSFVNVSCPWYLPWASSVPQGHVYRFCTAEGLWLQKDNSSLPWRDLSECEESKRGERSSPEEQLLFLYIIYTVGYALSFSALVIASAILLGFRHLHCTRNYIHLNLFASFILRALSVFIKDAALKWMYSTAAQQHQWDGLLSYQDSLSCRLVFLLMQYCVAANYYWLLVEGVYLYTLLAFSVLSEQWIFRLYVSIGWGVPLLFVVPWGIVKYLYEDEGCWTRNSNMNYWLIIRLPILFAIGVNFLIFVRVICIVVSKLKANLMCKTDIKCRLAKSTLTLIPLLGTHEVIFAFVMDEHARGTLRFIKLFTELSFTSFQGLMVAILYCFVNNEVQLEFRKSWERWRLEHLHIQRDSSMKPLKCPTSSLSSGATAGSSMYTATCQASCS

As to `CC[C@H](C)[C@H](NC(=O)[C@H](CC(C)C)NC(=O)[C@H](Cc1c[nH]c2ccccc12)NC(=O)[C@H](CCCCNC(=O)COCCOCCNC(=O)COCCOCCNC(=O)CC[C@H](NC(=O)CC[C@H](NC(=O)CC[C@H](NC(=O)CCCCCCCCCCCCCCCCC(=O)O)C(=O)O)C(=O)O)C(=O)O)NC(=O)[C@@H](NC(=O)[C@H](Cc1ccccc1)NC(=O)[C@H](CC(=O)O)NC(=O)[C@H](CCCNC(=N)N)NC(=O)[C@H](C)NC(=O)[C@H](CCCNC(=N)N)NC(=O)[C@H](CCCNC(=N)N)NC(=O)[C@H](C)NC(=O)[C@H](CC(=O)O)NC(=O)[C@H](CC(C)C)NC(=O)[C@H](Cc1ccc(O)cc1)NC(=O)[C@H](CCCCN)NC(=O)[C@H](CO)NC(=O)[C@H](Cc1ccc(O)cc1)NC(=O)[C@H](CC(=O)O)NC(=O)[C@H](CO)NC(=O)[C@@H](NC(=O)[C@H](Cc1ccccc1)NC(=O)[C@@H](NC(=O)CNC(=O)[C@H](CCC(N)=O)NC(=O)C(C)(C)NC(=O)[C@@H](N)Cc1c[nH]cn1)[C@@H](C)O)[C@@H](C)O)C(C)C)C(=O)N[C@@H](CO)C(=O)N[C@H](C(N)=O)[C@@H](C)O` [Chem. 1, N^ε24-[2-[2-[2-[[2-[2-[2-[[(4S)-4-carboxy-4-[[(4S)-4-carboxy-4-[[(4S)-4-carboxy-4-(17-carboxyheptadecanoylamino)butanoyl]amino]butanoyl]amino]butanoyl]amino]ethoxy]ethoxy]acetyl]amino]ethoxy]ethoxy]acetyl]-[Aib2,Ala16,Arg20,Lys24,Ile27,Ser28]-Glucagon amide] (H-H[Aib]QGTFTSDYSKYLDARRARDFVK([AEEA-AEEA-γGlu-γGlu-γGlu-C18 diacid])WLIST-NH2), the half-maximal inhibitory concentration (IC50) was 0.9 nM.

`CC[C@H](C)[C@H](NC(=O)[C@H](CC(C)C)NC(=O)[C@H](Cc1c[nH]c2ccccc12)NC(=O)[C@H](CCC(N)=O)NC(=O)[C@@H](NC(=O)[C@H](Cc1ccccc1)NC(=O)[C@H](CC(=O)O)NC(=O)[C@H](CCCNC(=N)N)NC(=O)[C@H](C)NC(=O)[C@H](CCCNC(=N)N)NC(=O)[C@H](CCCNC(=N)N)NC(=O)[C@H](C)NC(=O)[C@H](CC(=O)O)NC(=O)[C@H](CC(C)C)NC(=O)[C@H](Cc1ccc(O)cc1)NC(=O)[C@H](CCCCN)NC(=O)[C@H](CO)NC(=O)[C@H](CC(C)C)NC(=O)[C@H](CC(=O)O)NC(=O)[C@H](CO)NC(=O)[C@@H](NC(=O)[C@H](Cc1ccccc1)NC(=O)[C@@H](NC(=O)CNC(=O)[C@H](CCC(N)=O)NC(=O)C(C)(C)NC(=O)[C@@H](N)Cc1c[nH]cn1)[C@@H](C)O)[C@@H](C)O)C(C)C)C(=O)N[C@@H](CCCCNC(=O)COCCOCCNC(=O)COCCOCCNC(=O)CC[C@H](NC(=O)CC[C@H](NC(=O)CC[C@H](NC(=O)CCCCCCCCCCCCCCCCC(=O)O)C(=O)O)C(=O)O)C(=O)O)C(=O)N[C@H](C(N)=O)[C@@H](C)O` [Chem. 5, N^ε28-[2-[2-[2-[[2-[2-[2-[[(4S)-4-carboxy-4-[[(4S)-4-carboxy-4-[[(4S)-4-carboxy-4-(17-carboxyheptadecanoylamino)butanoyl]amino]butanoyl]amino]butanoyl]amino]ethoxy]ethoxy]acetyl]amino]ethoxy]ethoxy]acetyl]-[Aib2,Leu10,Ala16,Arg20,Ile27,Lys28]-Glucagon amide] (H-H[Aib]QGTFTSDLSKYLDARRARDFVQWLIK([AEEA-AEEA-γGlu-γGlu-γGlu-C18 diacid])T-NH2; N-terminus assumed): the half-inhibitory concentration (IC50) is 0.1 nM.

With `CC[C@H](C)[C@H](NC(=O)[C@H](CC(C)C)NC(=O)[C@H](Cc1c[nH]c2ccccc12)NC(=O)[C@H](CCC(N)=O)NC(=O)[C@@H](NC(=O)[C@H](Cc1ccccc1)NC(=O)[C@H](CC(=O)O)NC(=O)[C@H](CCC(N)=O)NC(=O)[C@H](C)NC(=O)[C@H](CCCNC(=N)N)NC(=O)[C@H](CCCNC(=N)N)NC(=O)[C@H](CC(C)C)NC(=O)[C@H](CC(=O)O)NC(=O)[C@H](CC(C)C)NC(=O)[C@H](Cc1ccc(O)cc1)NC(=O)[C@H](CCCCN)NC(=O)[C@H](CO)NC(=O)[C@H](CC(C)C)NC(=O)[C@H](CC(=O)O)NC(=O)[C@H](CO)NC(=O)[C@@H](NC(=O)[C@H](Cc1ccccc1)NC(=O)[C@@H](NC(=O)CNC(=O)[C@H](CCC(N)=O)NC(=O)C(C)(C)NC(=O)[C@@H](N)Cc1c[nH]cn1)[C@@H](C)O)[C@@H](C)O)C(C)C)C(=O)N[C@@H](CCCCNC(=O)COCCOCCNC(=O)COCCOCCNC(=O)CC[C@H](NC(=O)CC[C@H](NC(=O)CC[C@H](NC(=O)CCCCCCCCCCCCCCCCC(=O)O)C(=O)O)C(=O)O)C(=O)O)C(=O)N[C@H](C(N)=O)[C@@H](C)O` [Chem. 9, N^ε28-[2-[2-[2-[[2-[2-[2-[[(4S)-4-carboxy-4-[[(4S)-4-carboxy-4-[[(4S)-4-carboxy-4-(17-carboxyheptadecanoylamino)butanoyl]amino]butanoyl]amino]butanoyl]amino]ethoxy]ethoxy]acetyl]amino]ethoxy]ethoxy]acetyl]-[Aib2,Leu10,Leu16,Ile27,Lys28]-Glucagon amide] (H-H[Aib]QGTFTSDLSKYLDLRRAQDFVQWLIK([AEEA-AEEA-γGlu-γGlu-γGlu-C18 diacid])T-NH2; N-terminus assumed), the half-inhibitory concentration (IC50) stood at 0.5 nM.

As for `CC[C@H](C)[C@H](NC(=O)[C@H](CC(C)C)NC(=O)[C@H](Cc1c[nH]c2ccccc12)NC(=O)[C@H](CCCCNC(=O)COCCOCCNC(=O)COCCOCCNC(=O)CC[C@H](NC(=O)CC[C@H](NC(=O)CC[C@H](NC(=O)CCCCCCCCCCCCCCCCC(=O)O)C(=O)O)C(=O)O)C(=O)O)NC(=O)[C@@H](NC(=O)[C@H](Cc1ccccc1)NC(=O)[C@H](CC(=O)O)NC(=O)[C@H](CCCNC(=N)N)NC(=O)[C@H](C)NC(=O)[C@H](CCCNC(=N)N)NC(=O)[C@H](CCCNC(=N)N)NC(=O)[C@H](CO)NC(=O)[C@H](CCC(=O)O)NC(=O)[C@H](CC(C)C)NC(=O)[C@H](Cc1ccc(O)cc1)NC(=O)[C@H](CCCCN)NC(=O)[C@H](CO)NC(=O)[C@H](Cc1ccc(O)cc1)NC(=O)[C@H](CC(=O)O)NC(=O)[C@H](CO)NC(=O)[C@@H](NC(=O)[C@H](Cc1ccccc1)NC(=O)[C@@H](NC(=O)CNC(=O)[C@H](CCC(N)=O)NC(=O)C(C)(C)NC(=O)[C@@H](N)Cc1c[nH]cn1)[C@@H](C)O)[C@@H](C)O)C(C)C)C(=O)N[C@@H](CO)C(=O)N[C@H](C(N)=O)[C@@H](C)O` [Chem. 11, N^ε24-[2-[2-[2-[[2-[2-[2-[[(4S)-4-carboxy-4-[[(4S)-4-carboxy-4-[[(4S)-4-carboxy-4-(17-carboxyheptadecanoylamino)butanoyl]amino]butanoyl]amino]butanoyl]amino]ethoxy]ethoxy]acetyl]amino]ethoxy]ethoxy]acetyl]-[Aib2,Glu15,Arg20,Lys24,Ile27,Ser28]-Glucagon amide] (H-H[Aib]QGTFTSDYSKYLESRRARDFVK([AEEA-AEEA-γGlu-γGlu-γGlu-C18 diacid])WLIST-NH2), the IC50 was 0.5 nM.
